Target: T1, human M1 receptor (hCHRM1) (Homo sapiens, UniProt P11229)
T1 construct: expressed in transfected cells; host or cells: CHO-K1
T1 sequence (P11229 1-460): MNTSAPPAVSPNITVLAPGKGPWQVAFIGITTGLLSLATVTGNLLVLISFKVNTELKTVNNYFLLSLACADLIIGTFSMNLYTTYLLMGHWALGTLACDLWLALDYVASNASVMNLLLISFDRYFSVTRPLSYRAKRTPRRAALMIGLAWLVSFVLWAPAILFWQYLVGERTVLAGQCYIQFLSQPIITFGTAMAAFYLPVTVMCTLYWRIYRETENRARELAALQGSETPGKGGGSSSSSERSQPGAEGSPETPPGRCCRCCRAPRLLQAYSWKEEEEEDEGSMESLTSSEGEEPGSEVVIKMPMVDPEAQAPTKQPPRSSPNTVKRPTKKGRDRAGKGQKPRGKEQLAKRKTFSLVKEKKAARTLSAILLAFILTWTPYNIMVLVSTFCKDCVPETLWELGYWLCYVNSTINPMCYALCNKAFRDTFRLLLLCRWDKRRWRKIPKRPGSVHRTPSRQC
Assay: Measurement of M1 receptor positive allosteric modulator (M1PAM) activity, calcium fluorescence (FLIPRtetra) in CHO-K1 cells in the presence of acetylcholine at EC20
Type: cell-based
Conditions: in the presence of acetylcholine at EC20 (final 0.6 nM), CHO-K1 cells expressing hCHRM1; for EC50: inflection point of M1PAM activity, read-out: IP value; for activity (%) at 10 μM: test compound 10 μM
Summary of the method: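 CHO-K1 cells expressing human M1 were loaded with Fluo-4 AM, and compound was added with acetylcholine at EC20 (final 0.6 nM). Calcium fluorescence was read on FLIPRtetra for 1 min. Activity was normalized to 1 μM acetylcholine (100%) and DMSO (0%), and the curve inflection point was reported as IP.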

Compound	EC50 [nM]	activity (%) at 10 μM [%]
Cn1cnc(-c2ccc(CN3Cc4ccnc(Oc5ccc(C(F)(F)F)cc5F)c4C3=O)cc2)c1 [Example 419, 4-(2-fluoro-4-(trifluoromethyl)phenoxy)-2-(4-(1-methyl-1H-imidazol-4-yl)benzyl)-1,2-dihydro-3H-pyrrolo[3,4-c]pyridin-3-one]	7.3	102
Cc1ccc(Oc2nccc3c2C(=O)N(Cc2ccc(-c4ccn(C)n4)cc2)C3)c(F)c1 [Example 420, 4-(2-fluoro-4-methylphenoxy)-2-(4-(1-methyl-1H-pyrazol-3-yl)benzyl)-1,2-dihydro-3H-pyrrolo[3,4-c]pyridin-3-one]	39	101
Cc1cc(C(F)(F)F)cc(F)c1Oc1nccc2c1C(=O)N(Cc1ccc(-c3ccn(C)n3)cc1)C2 [Example 421, 4-(2-fluoro-6-methyl-4-(trifluoromethyl)phenoxy)-2-(4-(1-methyl-1H-pyrazol-3-yl)benzyl)-1,2-dihydro-3H-pyrrolo[3,4-c]pyridin-3-one]	39	112
NC(=O)c1ccc(CN2Cc3ccnc(Oc4ccc(C(F)(F)F)cc4F)c3C2=O)cc1 [Example 422, 4-((4-(2-fluoro-4-(trifluoromethyl)phenoxy)-3-oxo-1,3-dihydro-2H-pyrrolo[3,4-c]pyridin-2-yl)methyl)benzamide]	12	107
C[C@@H](O)[C@@H](C)Oc1nccc2c1C(=O)N(Cc1ccc(Cl)cc1)C2 [Example 423, 2-(4-chlorobenzyl)-4-(((2R,3R)-3-hydroxybutan-2-yl)oxy)-1,2-dihydro-3H-pyrrolo[3,4-c]pyridin-3-one]	90	96
C[C@@H](O)[C@@H](C)Oc1nccc2c1C(=O)N(Cc1ccc(F)cc1F)C2 [Example 424, 2-(2,4-difluorobenzyl)-4-(((2R,3R)-3-hydroxybutan-2-yl)oxy)-1,2-dihydro-3H-pyrrolo[3,4-c]pyridin-3-one]	88	106
C[C@@H](O)[C@@H](C)Oc1nccc2c1C(=O)N(Cc1c(F)cc(F)cc1F)C2 [Example 425, 4-(((2R,3R)-3-hydroxybutan-2-yl)oxy)-2-(2,4,6-trifluorobenzyl)-1,2-dihydro-3H-pyrrolo[3,4-c]pyridin-3-one]	86	102
C[C@@H](O)[C@@H](C)Oc1nccc2c1C(=O)N(Cc1ccc(-c3ccn(C)n3)cc1)C2 [Example 426, 4-(((2R,3R)-3-hydroxybutan-2-yl)oxy)-2-(4-(1-methyl-1H-pyrazol-3-yl)benzyl)-1,2-dihydro-3H-pyrrolo[3,4-c]pyridin-3-one]	8.8	102
Cc1ccc(Oc2nccc3c2C(=O)N(Cc2ccc(-n4cnc(C)c4)cc2)C3)c(F)c1 [Example 427, 4-(2-fluoro-4-methylphenoxy)-2-(4-(4-methyl-1H-imidazol-1-yl)benzyl)-1,2-dihydro-3H-pyrrolo[3,4-c]pyridin-3-one]	31	111
Cc1cc(F)c(Oc2nccc3c2C(=O)N(Cc2ccc(-n4cnc(C)c4)cc2)C3)c(F)c1 [Example 428, 4-(2,6-difluoro-4-methylphenoxy)-2-(4-(4-methyl-1H-imidazol-1-yl)benzyl)-1,2-dihydro-3H-pyrrolo[3,4-c]pyridin-3-one]	14	106
CCc1cc(F)c(Oc2nccc3c2C(=O)N(Cc2ccc(-n4cnc(C)c4)cc2)C3)c(F)c1 [Example 429, 4-(4-ethyl-2,6-difluorophenoxy)-2-(4-(4-methyl-1H-imidazol-1-yl)benzyl)-1,2-dihydro-3H-pyrrolo[3,4-c]pyridin-3-one]	11	109
CCc1cc(F)c(Oc2nccc3c2C(=O)N(Cc2ccc(-c4ccn(C)n4)cc2)C3)c(F)c1 [Example 430, 4-(4-ethyl-2,6-difluorophenoxy)-2-(4-(1-methyl-1H-pyrazol-3-yl)benzyl)-1,2-dihydro-3H-pyrrolo[3,4-c]pyridin-3-one]	17	110
CNC(=O)c1ccc(CN2Cc3ccnc(Oc4ccc(C(F)(F)F)cc4F)c3C2=O)cc1 [Example 431, 4-((4-(2-fluoro-4-(trifluoromethyl)phenoxy)-3-oxo-1,3-dihydro-2H-pyrrolo[3,4-c]pyridin-2-yl)methyl)-N-methylbenzamide]	6.8	103
CCNC(=O)c1ccc(CN2Cc3ccnc(Oc4ccc(C(F)(F)F)cc4F)c3C2=O)cc1 [Example 432, N-ethyl-4-((4-(2-fluoro-4-(trifluoromethyl)phenoxy)-3-oxo-1,3-dihydro-2H-pyrrolo[3,4-c]pyridin-2-yl)methyl)benzamide]	52	92
CNC(=O)c1ccc(CN2Cc3ccnc(Oc4ccc(C)cc4F)c3C2=O)cc1 [Example 433, 4-((4-(2-fluoro-4-methylphenoxy)-3-oxo-1,3-dihydro-2H-pyrrolo[3,4-c]pyridin-2-yl)methyl)-N-methylbenzamide]	10	101
CCNC(=O)c1ccc(CN2Cc3ccnc(Oc4ccc(C)cc4F)c3C2=O)cc1 [Example 434, N-ethyl-4-((4-(2-fluoro-4-methylphenoxy)-3-oxo-1,3-dihydro-2H-pyrrolo[3,4-c]pyridin-2-yl)methyl)benzamide]	26	95
CNC(=O)c1ccc(CN2Cc3ccnc(Oc4ccc(C(F)(F)F)cc4F)c3C2=O)cc1F [Example 435, 2-fluoro-4-((4-(2-fluoro-4-(trifluoromethyl)phenoxy)-3-oxo-1,3-dihydro-2H-pyrrolo[3,4-c]pyridin-2-yl)methyl)-N-methylbenzamide]	30	102
CCNC(=O)c1ccc(CN2Cc3ccnc(Oc4ccc(C(F)(F)F)cc4F)c3C2=O)cc1F [Example 436, N-ethyl-2-fluoro-4-((4-(2-fluoro-4-(trifluoromethyl)phenoxy)-3-oxo-1,3-dihydro-2H-pyrrolo[3,4-c]pyridin-2-yl)methyl)benzamide]	41	106
CNC(=O)c1ccc(CN2Cc3ccnc(Oc4ccc(C)cc4F)c3C2=O)cc1F [Example 437, 2-fluoro-4-((4-(2-fluoro-4-methylphenoxy)-3-oxo-1,3-dihydro-2H-pyrrolo[3,4-c]pyridin-2-yl)methyl)-N-methylbenzamide]	78	98
NC(=O)c1ccc(CN2Cc3ccnc(Oc4ccc(C(F)(F)F)cc4F)c3C2=O)cc1F [Example 438, 2-fluoro-4-((4-(2-fluoro-4-(trifluoromethyl)phenoxy)-3-oxo-1,3-dihydro-2H-pyrrolo[3,4-c]pyridin-2-yl)methyl)benzamide]	14	101
CNC(=O)c1ccc(CN2Cc3cccc(Oc4ccc(C(F)(F)F)cc4F)c3C2=O)cc1 [Example 439, 4-((7-(2-fluoro-4-(trifluoromethyl)phenoxy)-1-oxo-1,3-dihydro-2H-isoindol-2-yl)methyl)-N-methylbenzamide]	13	96
Cc1ccc(Oc2nccc3c2C(=O)N(Cc2ccc(C(N)=O)c(F)c2)C3)c(F)c1 [Example 440, 2-fluoro-4-((4-(2-fluoro-4-methylphenoxy)-3-oxo-1,3-dihydro-2H-pyrrolo[3,4-c]pyridin-2-yl)methyl)benzamide]	70	100
CCNC(=O)c1ccc(CN2Cc3ccnc(Oc4ccc(C)cc4F)c3C2=O)c(F)c1 [Example 441, N-ethyl-3-fluoro-4-((4-(2-fluoro-4-methylphenoxy)-3-oxo-1,3-dihydro-2H-pyrrolo[3,4-c]pyridin-2-yl)methyl)benzamide]	44	100
CNC(=O)c1ccc(CN2Cc3ccnc(Oc4ccc(Br)cc4F)c3C2=O)cc1F [Example 442, 4-((4-(4-bromo-2-fluorophenoxy)-3-oxo-1,3-dihydro-2H-pyrrolo[3,4-c]pyridin-2-yl)methyl)-2-fluoro-N-methylbenzamide]	38	100
CCc1ccc(Oc2nccc3c2C(=O)N(Cc2ccc(C(=O)NC)c(F)c2)C3)c(F)c1 [Example 443]	31	101
CCc1ccc(Oc2nccc3c2C(=O)N(Cc2ccc(C(=O)NC)cc2)C3)c(F)c1 [Example 444, 4-((4-(4-ethyl-2-fluorophenoxy)-3-oxo-1,3-dihydro-2H-pyrrolo[3,4-c]pyridin-2-yl)methyl)-N-methylbenzamide]	17	100
CCc1ccc(Oc2nccc3c2C(=O)N(Cc2ccc(C(N)=O)c(F)c2)C3)c(F)c1 [Example 445, 4-((4-(4-ethyl-2-fluorophenoxy)-3-oxo-1,3-dihydro-2H-pyrrolo[3,4-c]pyridin-2-yl)methyl)-2-fluorobenzamide]	28	100

Reference: patent US9777005B2 (Takeda Pharmaceutical Company Limited, priority 2012, dated 2017)
